Patent EP1066315B1 (University of Dundee, priority 1998, dated 2008)
Non-standard residues stand in square brackets, D forms with d. Residues, ends and D or L forms follow the SMILES beside them. *: point of attachment. Sta = CC(C)C[C@H](N)[C@@H](O)CC(=O)O; Fmoc = O=C(OCC1c2ccccc2-c2ccccc21)*; Isovaleryl = CC(C)CC(=O)*

Assays:
[1] = system: EBV-transformed B cells / autologous TTCF-specific T cell clones; test: TTCF antigen presentation by EBV-transformed B cells, read out as proliferation of autologous T cell clones; type: cell-based, human; details: EBV-B cells from donor, 2 mg/ml peptide; Fig 9b
Description: The invention will now be described by reference to the following Examples and Figures wherein • Figure 1: Processing of TTCF by a leupeptin-insensitive cysteine endopeptidase activity. (a) TTCF was digested in vitro in the presence of disrupted lysosomes (1-2 µg) in the presence or absence of iodoacetamide (1 mM), leupeptin, E64 or pepstatin (each at 0.1 mg/ml). Digestions were in 0.1 M NH4 acetate at pH 4.5 or Na2HPO4, pH 6.0 or 7.0. After 4 hours at 37°C, the reactions were separated by Tris-tricine SDS-PAGE and stained with Coomassie Blue. (b) Cleavage sites: TTCF digestion products were separated by SDS PAGE and electrophoretically transferred to nitrocellulose membrane. Individual fragments numbered 1-6 were subjected to 5 cycles of Edman degradation. N-terminal sequence obtained is shown in bold following upstream residues from TTCF (tetanus toxin numbering). The N-terminal sequence of His-tagged TTCF was obtained for fragments 1 and 3. (c) Residues Asn 1184 and Glu 1184 in TTCF were mutated to alanine (see Methods) and digestions performed as before. The mutation abolishes cleavage at the mutated site but not at the first site (doublet at 47 kD). In this experiment cleavage of the third site was minimal. • Figure 2: TTCF is processed by an asparaginyl endopeptidase. (a) Chromatography of the TTCF processing activity on Mono-S resin. Fractions eluted by NaCl gradient were incubated with the substrates Z-Ala-Ala-Asn-NHMec or Z-Phe-Arg-NHMec in the presence or absence of E64 (trans-epoxysuccinyl-L-leucylamido-(4-guanidino)butane). […] (c) Each fraction was analysed by SDS-PAGE and Western blotting. […] Release of 7-amino-4-methyl coumarin was measured after 10, 20 or 30 minutes. […] At different times the cells were washed, fixed in 0.05 % glutaraldehyde and antigen presentation measured using proliferation of different autologous TTCF-specific T cell clones. c, AEP pre-processing of TTCF speeds antigen presentation. […] Presentation was measured after 60 minutes of antigen pulsing using EBV B cells. […]

[2] = system: purified AEP (legumain from pig kidney); test: Digestion of TTCF with purified AEP in the presence of tetrapeptides; type: biochemical; details: 0.2 mg/ml peptide; Fig 3a
Description: The invention will now be described by reference to the following Examples and Figures wherein • Figure 1: Processing of TTCF by a leupeptin-insensitive cysteine endopeptidase activity. (a) TTCF was digested in vitro in the presence of disrupted lysosomes (1-2 µg) in the presence or absence of iodoacetamide (1 mM), leupeptin, E64 or pepstatin (each at 0.1 mg/ml). Digestions were in 0.1 M NH4 acetate at pH 4.5 or Na2HPO4, pH 6.0 or 7.0. After 4 hours at 37°C, the reactions were separated by Tris-tricine SDS-PAGE and stained with Coomassie Blue. (b) Cleavage sites: TTCF digestion products were separated by SDS PAGE and electrophoretically transferred to nitrocellulose membrane. Individual fragments numbered 1-6 were subjected to 5 cycles of Edman degradation. N-terminal sequence obtained is shown in bold following upstream residues from TTCF (tetanus toxin numbering). The N-terminal sequence of His-tagged TTCF was obtained for fragments 1 and 3. (c) Residues Asn 1184 and Glu 1184 in TTCF were mutated to alanine (see Methods) and digestions performed as before. The mutation abolishes cleavage at the mutated site but not at the first site (doublet at 47 kD). In this experiment cleavage of the third site was minimal. • Figure 2: TTCF is processed by an asparaginyl endopeptidase. (a) Chromatography of the TTCF processing activity on Mono-S resin. Fractions eluted by NaCl gradient were incubated with the substrates Z-Ala-Ala-Asn-NHMec or Z-Phe-Arg-NHMec in the presence or absence of E64 (trans-epoxysuccinyl-L-leucylamido-(4-guanidino)butane). […] (b) Fractions as above were incubated with 10 µg TTCF in the presence or absence of E64 for 4 hours at 37°C prior to SDS-PAGE analysis. (c) Each fraction was analysed by SDS-PAGE and Western blotting. Electrophoretically transferred material was probed with an affinity purified antiserum raised against the peptide KGIGSGKVLKSGPQC from human legumain^1. • Figure 3: Peptide inhibitors of AEP block asparaginyl endopeptidase activity and TTCF processing in vitro and in vivo. […] Release of 7-amino-4-methyl coumarin was measured after 10, 20 or 30 minutes. […] At different times the cells were washed, fixed in 0.05 % glutaraldehyde and antigen presentation measured using proliferation of different autologous TTCF-specific T cell clones. c, AEP pre-processing of TTCF speeds antigen presentation. […] Presentation was measured after 60 minutes of antigen pulsing using EBV B cells.
We decided to test the possibility that high concentrations of asparagine containing peptides might act as competitive inhibitors. […] To establish that inhibition of AEP was specific, we measured the hydrolysis of different synthetic peptide substrates in the presence and absence of these tetrapeptides.

[3] = system: peripheral blood mononuclear cells (PBMC) / autologous TTCF specific T cell clones; test: TTCF antigen presentation by PBMC, read out as proliferation of autologous T cell clones; type: cell-based, human; details: PBMC, 1 mg/ml peptide, between 30 and 60 minutes of antigen pulsing; Fig 9a
Description: (§1) The invention will now be described by reference to the following Examples and Figures wherein • Figure 1: Processing of TTCF by a leupeptin-insensitive cysteine endopeptidase activity. (a) TTCF was digested in vitro in the presence of disrupted lysosomes (1-2 µg) in the presence or absence of iodoacetamide (1 mM), leupeptin, E64 or pepstatin (each at 0.1 mg/ml). Digestions were in 0.1 M NH4 acetate at pH 4.5 or Na2HPO4, pH 6.0 or 7.0. After 4 hours at 37°C, the reactions were separated by Tris-tricine SDS-PAGE and stained with Coomassie Blue. (b) Cleavage sites: TTCF digestion products were separated by SDS PAGE and electrophoretically transferred to nitrocellulose membrane. Individual fragments numbered 1-6 were subjected to 5 cycles of Edman degradation. N-terminal sequence obtained is shown in bold following upstream residues from TTCF (tetanus toxin numbering). The N-terminal sequence of His-tagged TTCF was obtained for fragments 1 and 3. (c) Residues Asn 1184 and Glu 1184 in TTCF were mutated to alanine (see Methods) and digestions performed as before. The mutation abolishes cleavage at the mutated site but not at the first site (doublet at 47 kD). In this experiment cleavage of the third site was minimal. • Figure 2: TTCF is processed by an asparaginyl endopeptidase. (a) Chromatography of the TTCF processing activity on Mono-S resin. Fractions eluted by NaCl gradient were incubated with the substrates Z-Ala-Ala-Asn-NHMec or Z-Phe-Arg-NHMec in the presence or absence of E64 (trans-epoxysuccinyl-L-leucylamido-(4-guanidino)butane). […] (b) Fractions as above were incubated with 10 µg TTCF in the presence or absence of E64 for 4 hours at 37°C prior to SDS-PAGE analysis. (c) Each fraction was analysed by SDS-PAGE and Western blotting. Electrophoretically transferred material was probed with an affinity purified antiserum raised against the peptide KGIGSGKVLKSGPQC from human legumain^1. • Figure 3: Peptide inhibitors of AEP block asparaginyl endopeptidase activity and TTCF processing in vitro and in vivo. (a) TTCF was digested with purified AEP (legumain from pig kidney) in the presence or absence of 0.2 mg/ml of the peptides indicated. […] (b) Purified AEP or a crude lysosomal protease mixture were incubated with Z-Ala-Ala-Asn-NHMec, Z-Phe-Arg-NHMec (cathepsins L&B) or Z-Val-Val-Ala NHMec (cathepsin S) in the presence of increasing concentrations of AENK or AEQK. Release of 7-amino-4-methyl coumarin was measured after 10, 20 or 30 minutes. […] At different times the cells were washed, fixed in 0.05 % glutaraldehyde and co-cultured with autologous TTCF specific T cell clones. […] Proteins obtained from commercial sources, as described in the literature or custom peptides were digested with purified pig kidney legumain at pH 5.5 in the presence of 1 mM DTT. […] When present peptide was maintained during antigen pulsing at 1 mg/ml (a) or 2 mg/ml (b). At different times the cells were washed, fixed in 0.05 % glutaraldehyde and antigen presentation measured using proliferation of different autologous TTCF-specific T cell clones. c, AEP pre-processing of TTCF speeds antigen presentation. […] Presentation was measured after 60 minutes of antigen pulsing using EBV B cells.
If AEP plays a role in TTCF processing in antigen presenting cells then sufficiently high levels of the competing AENK peptide might be expected to interfere with normal class II MHC loading of TTCF epitopes. Following a 15 minute preincubation with or without tetrapeptides, freshly isolated peripheral blood mononuclear cells (PBMC) were incubated with TTCF antigen in the continued presence or absence of the peptides. At different times, the cells were washed, fixed and then co-cultured with different autologous T cell clones to assess expression of different peptide/MHC complexes. […] At later times there was some recovery of presentation of these epitopes as expected for a competitive inhibitor. […]

[4] = molecular target: T1, disrupted lysosomes isolated from the human B cell line EDR (TTCF processing activity) (Homo sapiens, UniProt Q99538); test: Digestion of TTCF by disrupted B cell lysosomes, SDS-PAGE readout; type: biochemical; details: inhibitor at 0.1 mg/ml; pH 4.5; 4 hours at 37°C; Fig 1a
T1 construct: disrupted lysosomes isolated from the human B cell line EDR; endogenous in cells; host or cells: human B cell line EDR, Percoll-gradient lysosomal fraction, disrupted
T1 sequence (Q99538 26-323 limits assumed): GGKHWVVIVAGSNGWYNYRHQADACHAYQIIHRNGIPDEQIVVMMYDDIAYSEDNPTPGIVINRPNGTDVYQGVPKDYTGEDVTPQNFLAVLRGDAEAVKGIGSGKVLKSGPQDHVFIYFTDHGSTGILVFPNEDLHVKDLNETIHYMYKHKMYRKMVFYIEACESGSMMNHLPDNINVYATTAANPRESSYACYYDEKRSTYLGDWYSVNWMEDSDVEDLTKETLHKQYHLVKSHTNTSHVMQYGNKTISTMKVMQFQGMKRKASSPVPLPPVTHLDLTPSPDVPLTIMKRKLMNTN
Description: as §1
[…]. […] Nor could we reproduce the lysosomal TTCF digestion pattern or indeed generate any of these fragments using purified cathepsins L, S, B, D or E , all of which have been implicated in the class II MHC antigen processing pathway (reviewed in refs 5 & 6).
TTCF processing activity. Lysosomal fractions from the human B cell line EDR were prepared on 27 % Percoll density gradients as previously described^8 using ^125I-labelled transferrin (internalised for 30 minutes at 37°C) and β-hexosaminidase to identify endosomal/plasma membrane and lysosomal fractions respectively. The peak of lysosomes was collected by centrifugation at 40,000 g for 1 hour, removed from the underlying Percoll pellet, collected again at 50,000 g for 1 hour and stored frozen. […]

SMILES	antigen presentation by EBV-B cells [1]	inhibition of processing of TTCF by AEP [2]	presentation to most clones (eg AK 5, 90 & 6) at early times [3]	inhibition of lysosomal digestion of TTCF [4]
C[C@H](NC(=O)OCC1c2ccccc2-c2ccccc21)C(=O)N[C@@H](CCC(=O)O)C(=O)N[C@@H](CCC(N)=O)C(=O)N[C@@H](CCCCN)C(N)=O [AEQK] (Fmoc-AEQK-NH2)	virtually no effect	did not inhibit	detectable	–
NCCCC[C@H](NC(=O)OCC1c2ccccc2-c2ccccc21)C(=O)N[C@@H](CC(N)=O)C(=O)N[C@@H](CC(N)=O)C(=O)N[C@@H](CCC(=O)O)C(N)=O [KNNE, Lys-Asn-Asn-Glu-NH] (Fmoc-KNNE-NH2)	–	also inhibited but was less effective	–	–
CC(C)CC(=O)N[C@H](C(=O)N[C@H](C(=O)N[C@@H](CC(C)C)[C@@H](O)CC(=O)N[C@@H](C)C(=O)N[C@@H](CC(C)C)[C@@H](O)CC(=O)O)C(C)C)C(C)C [pepstatin] (Isovaleryl-VV[Sta]A[Sta]-OH)	–	–	–	could not inhibit
